# Structures can show the parent of a compound that is named as a salt.
# Target: rhesus (Macacca Mulatta) H3 receptor (Macaca mulatta, UniProt Q865E1)
# Assay: Rhesus H3 radioligand binding assay ([3H]-Methylhistamine, WGA SPA)
# Design: species or system rhesus monkey (Macacca Mulatta)
# Settings: displacement of [3H]-Methylhistamine (2 nM) from rhesus H3 receptor membranes; Cheng-Prusoff
# Procedure: (Genbank #AY231164). Stably transfected cultures were amplified in tissue culture flasks by standard tissue culture methods and induced to express rhesus H3 by exposure to 500 ng/ml tetracycline (Cellgro) for 24 hours. After induction, cells were dissociated from flasks utilizing Cell Stripper (Cellgro). Cells were centrifuged (1K×g, 5 min) and pellet frozen in an ethanol-dry ice bath to disrupt cell membranes. Frozen cell pellet was re-suspended in 5 mM HEPES (pH 7.4, Invitrogen) at 10 ml/1000 cm2 of harvested cells. The cell suspension was drawn through an 18 gauge needle (2-3×) followed by a 23 gauge needle (2-3×) to further disrupt cell membranes. The cell suspension was centrifuged (40K×g, 30 min). Cell membrane pellet was re-suspended in 5 mM HEPES (pH 7.4, Invitrogen) at a final protein concentration of 10 mg/ml. Rhesus H3 membranes were stored under liquid nitrogen prior to use in [3H]-Methylhistamine and GTPγS radioligand binding assays.
# Rhesus H3 radioligand binding assay was performed using rhesus H3 receptor membranes (prepared as described above), [3H]-Methylhistamine (Perkin Elmer) and WGA SPA beads (wheat germ agglutinin scintillation proximity assay) beads (Amersham). The assay was performed in 96-well Opti-Plates (Packard). Each reaction contained 50 μl rhesus H3 membranes (20-30 μg total protein), 50 μl WGA SPA beads (0.1 μg) and 50 μl of 83 Ci/mmol [^3H]-Methylhistamine (final concentration 2 nM) and 50 μl of tested compound. The compounds of this invention and/or vehicle were diluted with binding buffer from 10 mM DMSO stocks. Assay plates were sealed with TopSeal (Perkin Elmer) and mixed on shaker (25° C., 1 hour). Assay plates were read on TopCount scintillation counter (Packard). Results were analyzed by Hill transformation and Ki values were determined by Cheng-Prusoff equation.
# Sequence of rhesus (Macacca Mulatta) H3 receptor (Q865E1 1-445): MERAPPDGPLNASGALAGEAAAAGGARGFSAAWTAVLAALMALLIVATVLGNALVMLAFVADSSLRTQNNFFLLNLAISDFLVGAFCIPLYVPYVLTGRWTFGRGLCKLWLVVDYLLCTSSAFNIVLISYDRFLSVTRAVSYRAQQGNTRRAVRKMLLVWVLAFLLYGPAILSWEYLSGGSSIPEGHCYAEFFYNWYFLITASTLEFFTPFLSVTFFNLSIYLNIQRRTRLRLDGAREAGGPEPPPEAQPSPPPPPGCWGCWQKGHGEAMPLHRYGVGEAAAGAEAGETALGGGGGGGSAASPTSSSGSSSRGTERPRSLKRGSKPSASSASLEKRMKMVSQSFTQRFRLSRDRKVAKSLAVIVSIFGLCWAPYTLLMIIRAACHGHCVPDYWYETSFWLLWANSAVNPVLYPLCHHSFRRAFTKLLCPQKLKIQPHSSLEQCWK
row,SMILES,Ki [nM]
1,"O=C1N(c2ccc([C@H]3CC[C@H](N4CCCC4)CC3)cc2F)CCC12CCNCC2 [Example 20, 2-[2-Fluoro-4-(4-pyrrolidin-1-yl-cyclohexyl)-phenyl]-2,8-diaza-spiro[4.5]decan-1-one hydrochloride]",137
2,"CC(=O)N1CCC(C(=O)Nc2ccc([C@H]3CCC(N4CCC[C@@H]4C)C3)cc2)CC1 (stereo partly drawn) [Example 22, 1-Acetyl-piperidine-4-carboxylic acid {4-[(S)-3-((S)-2-methyl-pyrrolidin-1-yl)-cyclopentyl]-phenyl}-amide]",118
3,"C[C@H]1CCCN1C1CC[C@H](c2ccc(NC(=O)c3ccc(OC(F)(F)F)cc3)cc2)C1 (stereo partly drawn) [Example 36, N-{4-[(S)-3-((S)-2-Methyl-pyrrolidin-1-yl)-cyclopentyl]-phenyl}-4-trifluoromethoxy-benzamide]",48.5
4,"C[C@H]1CCCN1C1CC[C@H](c2ccc(NC(=O)c3cccs3)cc2)C1 (stereo partly drawn) [Example 23, Thiophene-2-carboxylic acid {4-[(S)-3-((S)-2-methyl-pyrrolidin-1-yl)-cyclopentyl]-phenyl}-amide]",46.5
5,"CC(C)(C)OC(=O)N1CCC2(CC1)CCN(c1ccc([C@H]3CC[C@H](N4CCC4)CC3)cc1F)C2=O [Example 15, 2-[4-(4-Azetidin-1-yl-cyclohexyl)-2-fluoro-phenyl]-1-oxo-2,8-diaza-spiro[4.5]decane-8-carboxylic acid tert-butyl ester]",220
6,"CC(C)(C)OC(=O)N1CCC2(CC1)CCN(c1ccc([C@H]3CC[C@H](N4CCCC4)CC3)cc1F)C2=O [Example 13, 2-[2-Fluoro-4-(4-pyrrolidin-1-yl-cyclohexyl)-phenyl]-1-oxo-2,8-diaza-spiro[4.5]decane-8-carboxylic acid tert-butyl ester]",379
7,"C[C@H]1CCCN1C1CC[C@H](c2ccc(NC(=O)c3ccccc3OC(F)(F)F)cc2)C1 (stereo partly drawn) [Example 35, N-{4-[(S)-3-((S)-2-Methyl-pyrrolidin-1-yl)-cyclopentyl]-phenyl}-2-trifluoromethoxy-benzamide]",136
8,"O=C1N(c2ccc([C@H]3CC[C@H](N4CCC4)CC3)cc2F)CCC12CCNCC2 [Example 19, 2-[4-(4-Azetidin-1-yl-cyclohexyl)-2-fluoro-phenyl]-2,8-diaza-spiro[4.5]decan-1-one hydrochloride]",82.2
9,"O=C1N(c2ccc([C@H]3CC[C@H](N4CCCC4)CC3)cc2)CCC12CCOCC2 [Example 9, 2-[4-(4-Pyrrolidin-1-yl-cyclohexyl)-phenyl]-8-oxa-2-aza-spiro[4.5]decan-1-one]",112
10,"C[C@H]1CCCN1C1CC[C@H](c2ccc(NC(=O)c3ccc(Cl)cc3)cc2)C1 (stereo partly drawn) [Example 32, 4-Chloro-N-{4-[(S)-3-((S)-2-methyl-pyrrolidin-1-yl)-cyclopentyl]-phenyl}-benzamide]",65.5
11,"C[C@H]1CCCN1C1CC[C@H](c2ccc(NC(=O)Cc3ccccc3)cc2)C1 (stereo partly drawn) [Example 37, N-{4-[(S)-3-((S)-2-Methyl-pyrrolidin-1-yl)-cyclopentyl]-phenyl}-2-phenyl-acetamide]",71.4
12,"C[C@H]1CCCN1[C@H]1CC[C@H](c2ccc(N3CCC4(CCNCC4)C3=O)c(F)c2)CC1 [Example 17, 2-{2-Fluoro-4-[4-((S)-2-methyl-pyrrolidin-1-yl)-cyclohexyl]-phenyl}-2,8-diaza-spiro[4.5]decan-1-one hydrochloride]",84.3
13,"CC1CCCN1C1CC[C@H](c2ccc(N3CCC4(CCC(O)CC4)C3=O)cc2)C1 (some centres unmarked) [Example 4, 8-Hydroxy-2-{4-[3-(2-methyl-pyrrolidin-1-yl)-cyclopentyl]-phenyl}-2-aza-spiro[4.5]decan-1-one]",75.2

# Further compounds by falling Ki, results first:
row,Ki [nM],SMILES
1,45.7,"Cc1ccc(F)cc1C(=O)Nc1ccc([C@H]2CCC(N3CCC[C@@H]3C)C2)cc1 (stereo partly drawn) [Example 25, 5-Fluoro-2-methyl-N-{4-[(S)-3-((S)-2-methyl-pyrrolidin-1-yl)-cyclopentyl]-phenyl}-benzamide]"
2,39.4,"C[C@H]1CCCCN1[C@H]1CC[C@H](c2ccc(N3CCC4(CCOCC4)C3=O)cc2)CC1 [Example 11, 2-{4-[4-((S)-2-Methyl-piperidin-1-yl)-cyclohexyl]-phenyl}-8-oxa-2-aza-spiro[4.5]decan-1-one]"
3,37.4,"C[C@H]1CCCN1C1CC[C@H](c2ccc(NC(=O)OCc3ccccc3)cc2)C1 (mixture of isomers) [Intermediate (13), {4-[(S)-3-((S)-2-Methyl-pyrrolidin-1-yl)-cyclopentyl]-phenyl}-carbamic acid benzyl ester]"
4,35.3,"C[C@@H]1CCCN1[C@H]1CC[C@H](c2ccc(N3CCC4(CCOCC4)C3=O)cc2)CC1 [Example 10, 2-{4-[4-((R)-2-Methyl-pyrrolidin-1-yl)-cyclohexyl]-phenyl}-8-oxa-2-aza-spiro[4.5]decan-1-one]"
5,34.9,"C[C@H]1CCCN1C1CC[C@H](c2ccc(NC(=O)c3ccc(F)cc3)cc2)C1 (stereo partly drawn) [Example 31, 4-Fluoro-N-{4-[(S)-3-((S)-2-methyl-pyrrolidin-1-yl)-cyclopentyl]-phenyl}-benzamide]"
6,34,"C[C@H]1CCCN1C1CC[C@H](c2ccc(NS(=O)(=O)C3CC3)cc2)C1 (stereo partly drawn) [Example 27, Cyclopropanesulfonic acid {4-[(S)-3-((S)-2-methyl-pyrrolidin-1-yl)-cyclopentyl]-phenyl}-amide]"
7,33.7,"C[C@H]1CCCN1C1CC[C@H](c2ccc(NC(=O)C3CCOCC3)cc2)C1 (stereo partly drawn) [Example 28, Tetrahydro-pyran-4-carboxylic acid {4-[(S)-3-((S)-2-methyl-pyrrolidin-1-yl)-cyclopentyl]-phenyl}-amide]"
8,32.6,"Cc1ccccc1C(=O)Nc1ccc([C@H]2CCC(N3CCC[C@@H]3C)C2)cc1 (stereo partly drawn) [Example 33, 2-Methyl-N-{4-[(S)-3-((S)-2-methyl-pyrrolidin-1-yl)-cyclopentyl]-phenyl}-benzamide]"
9,27.5,"CC1CCCN1C1CC[C@H](c2ccc(N3CCCC4(CCCC4)C3=O)cc2)C1 (some centres unmarked) [Example 7, 7-{4-[3-(2-Methyl-pyrrolidin-1-yl)-cyclopentyl]-phenyl}-7-aza-spiro[4.5]decan-6-one]"
10,27.4,"C[C@H]1CCCN1C1CC[C@H](c2ccc(NS(=O)(=O)c3ccc(F)c(F)c3)cc2)C1 (stereo partly drawn) [Example 30, 3,4-Difluoro-N-{4-[(S)-3-((S)-2-methyl-pyrrolidin-1-yl)-cyclopentyl]-phenyl}-benzenesulfonamide]"
11,17.9,"CC1CCCN1C1CC[C@H](c2ccc(N3CCCC4(CCN(C(=O)OC(C)(C)C)CC4)C3=O)cc2)C1 (some centres unmarked) [Example 3, 2-{4-[3-(2-Methyl-pyrrolidin-1-yl)-cyclopentyl]-phenyl}-1-oxo-2,9-diaza-spiro[5.5]undecane-9-carboxylic acid tert-butyl ester]"
12,12.8,"C[C@H]1CCCN1C1CC[C@H](c2ccc(N3CCC4(CCCCC4)C3=O)cc2)C1 (stereo partly drawn) [Example 2, 2-{4-[(S)-3-((S)-2-Methyl-pyrrolidin-1-yl)-cyclopentyl]-phenyl}-2-aza-spiro[4.5]decan-1-one]"
13,12.4,"C[C@H]1CCCN1C1CC[C@H](c2ccc(NS(=O)(=O)c3ccc(F)cc3)cc2)C1 (stereo partly drawn) [Example 24, 4-Fluoro-N-{4-[(S)-3-((S)-2-methyl-pyrrolidin-1-yl)-cyclopentyl]-phenyl}-benzenesulfonamide]"
14,11.9,"C[C@H]1CCCN1C1CC[C@H](c2ccc(N3CCC4(CCOCC4)C3=O)cc2)C1 (stereo partly drawn) [Example 1, 2-{4-[(S)-3-((S)-2-Methyl-pyrrolidin-1-yl)-cyclopentyl]-phenyl}-8-oxa-2-aza-spiro[4.5]decan-1-one]"
15,11.3,"C[C@@H]1CCCN1[C@H]1CC[C@H](c2ccc(N3CCC4(CCNCC4)C3=O)c(F)c2)CC1 [Example 18, 2-{2-Fluoro-4-[4-((R)-2-methyl-pyrrolidin-1-yl)-cyclohexyl]-phenyl}-2,8-diaza-spiro[4.5]decan-1-one hydrochloride]"
16,6.88,"C[C@H]1CCCN1C1CC=C(c2ccc(NC(=O)OCc3ccccc3)c(F)c2)CC1 (stereo partly drawn) [Example 21, {2-Fluoro-4-[4-((S)-2-methyl-pyrrolidin-1-yl)-cyclohex-1-enyl]-phenyl}-carbamic acid benzyl ester]"
17,6.1,"C[C@H]1CCCN1[C@H]1CC[C@H](c2ccc(N3CCC4(CCOCC4)C3=O)cc2)CC1 [Example 12, 2-{4-[4-((S)-2-Methyl-pyrrolidin-1-yl)-cyclohexyl]-phenyl}-8-oxa-2-aza-spiro[4.5]decan-1-one]"
18,6.07,"CC1CCCN1C1CC[C@H](c2ccc(N3CCCC4(CCNCC4)C3=O)cc2)C1 (some centres unmarked) [Example 8, 2-{4-[3-(2-Methyl-pyrrolidin-1-yl)-cyclopentyl]-phenyl}-2,9-diaza-spiro[5.5]undecan-1-one hydrochloride]"
19,6.01,"Cc1noc(C)c1C(=O)Nc1ccc([C@H]2CCC(N3CCC[C@@H]3C)C2)cc1 (stereo partly drawn) [Example 26, 3,5-Dimethyl-isoxazole-4-carboxylic acid {4-[(S)-3-((S)-2-methyl-pyrrolidin-1-yl)-cyclopentyl]-phenyl}-amide]"

# Reference: patent US9453023B2, “Substituted phenyl cycloalkyl pyrrolidine (piperidine) spirolactams and amides, preparation and therapeutic use thereof” (SANOFI, priority 2010, dated 2016)
